According to patent US7994209B2, “3-phenoxymethylpyrrolidine compounds” (Theravance, Inc., priority 2009, dated 2011):
Marks after values point to notes of the source that are not given here.

What was measured:
[1] = target: T1, hSERT (Homo sapiens, UniProt P31645); experiment: fluorescence-based serotonin reuptake inhibition assay (Tsuruda et al. 2010; data indicated by an asterisk); type: cell-based; set-up: expressed in transfected cells; host or cells: HEK-293; details: fluorescence-based assay (values with asterisk), read-out: SERT pIC50 (converted)
T1 sequence (P31645 whole entry): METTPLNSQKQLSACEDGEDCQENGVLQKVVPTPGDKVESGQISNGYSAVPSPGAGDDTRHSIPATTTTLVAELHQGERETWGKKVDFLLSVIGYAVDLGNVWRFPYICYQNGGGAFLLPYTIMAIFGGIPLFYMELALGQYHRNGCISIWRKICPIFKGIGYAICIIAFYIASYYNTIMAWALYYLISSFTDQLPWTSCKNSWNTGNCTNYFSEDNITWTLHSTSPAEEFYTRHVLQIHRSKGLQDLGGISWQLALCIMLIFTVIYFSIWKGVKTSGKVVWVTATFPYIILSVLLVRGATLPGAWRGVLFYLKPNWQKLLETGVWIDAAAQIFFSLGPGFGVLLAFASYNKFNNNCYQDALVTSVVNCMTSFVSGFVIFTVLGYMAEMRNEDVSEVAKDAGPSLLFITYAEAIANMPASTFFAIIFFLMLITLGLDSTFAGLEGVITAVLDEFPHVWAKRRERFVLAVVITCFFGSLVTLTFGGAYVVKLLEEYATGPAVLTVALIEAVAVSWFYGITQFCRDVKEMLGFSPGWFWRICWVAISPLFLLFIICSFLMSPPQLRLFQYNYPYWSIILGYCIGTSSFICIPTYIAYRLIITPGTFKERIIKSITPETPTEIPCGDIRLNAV

[2] = target: T2, hNET (Homo sapiens, UniProt P23975); experiment: fluorescence-based norepinephrine reuptake inhibition assay (Tsuruda et al. 2010; data indicated by an asterisk); type: cell-based; set-up: expressed in transfected cells; host or cells: HEK-293; details: norepinephrine reuptake inhibition, fluorescence-based assay (values with asterisk); for IC50: read-out: NET pIC50 (converted)
T2 sequence (P23975 whole entry): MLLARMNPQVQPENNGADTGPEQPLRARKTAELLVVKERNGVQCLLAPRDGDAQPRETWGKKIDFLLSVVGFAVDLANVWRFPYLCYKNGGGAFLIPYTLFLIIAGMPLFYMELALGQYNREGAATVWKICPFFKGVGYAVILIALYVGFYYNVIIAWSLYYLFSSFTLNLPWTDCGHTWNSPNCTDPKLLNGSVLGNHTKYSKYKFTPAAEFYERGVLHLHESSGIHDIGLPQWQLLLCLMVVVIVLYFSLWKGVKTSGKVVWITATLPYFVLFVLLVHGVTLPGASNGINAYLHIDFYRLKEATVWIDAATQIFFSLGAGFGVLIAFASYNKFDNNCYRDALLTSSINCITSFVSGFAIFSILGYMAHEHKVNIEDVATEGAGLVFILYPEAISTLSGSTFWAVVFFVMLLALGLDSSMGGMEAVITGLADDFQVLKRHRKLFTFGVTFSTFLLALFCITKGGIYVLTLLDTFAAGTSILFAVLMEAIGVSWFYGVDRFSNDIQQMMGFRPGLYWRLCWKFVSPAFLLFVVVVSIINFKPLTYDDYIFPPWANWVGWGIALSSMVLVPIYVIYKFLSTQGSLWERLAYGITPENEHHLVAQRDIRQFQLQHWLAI

[3] = target: T2, hNET; experiment: hNET membrane radioligand binding assay (3H-nisoxetine), Assay 1
[4] = target: T1, hSERT; experiment: hSERT membrane radioligand binding assay (3H-citalopram), Assay 1; details: SERT pKi, hSERT HEK-293 membranes, 1.0 nM 3H-citalopram; values given as lower bounds

Row | SMILES | IC50 [1] [nM] | IC50 [2] [nM] | Ki [3] [nM] | Ki [4] [nM] | NET pIC50 [2]
1 | CCC[C@@H](Oc1cc(Cl)cc(Cl)c1)[C@@H]1CCNC1 [Example 4-9, (R)-3-[(R)-1-(3,5-Dichlorophenoxy)butyl]pyrrolidine] | ≤ 10 | ≤ 10 | ≤ 10 | ≤ 10 | 
2 | CCC[C@@H](Oc1cccc(Cl)c1C(F)(F)F)[C@@H]1CCNC1 [Example 4-71, (R)-3-[(R)-1-(3-Chloro-2-trifluoromethylphenoxy)butyl]pyrrolidine] | ≤ 100 | ≤ 100 | ≤ 10 | ≤ 10 | 
3 | CC(C)[C@H](Oc1c(Cl)cccc1Cl)[C@H]1CCNC1 [Example 6-28, (S)-3-[(S)-1-(2,6-Dichlorophenoxy)-2-methylpropyl]pyrrolidine] | ≤ 100 | ≤ 10 | ≤ 10 | ≤ 10 | 
4 | CC(C)[C@H](Oc1cccc(Cl)c1C(F)(F)F)[C@H]1CCNC1 [Example 6-49, (S)-3-[(S)-1-(3-Chloro-2-trifluoromethylphenoxy)-2-methylpropyl]pyrrolidine] | ≤ 100 | ≤ 10 | ≤ 10 | ≤ 10 | 
5 | CC(C)[C@H](Oc1ccc(Cl)cc1C(F)(F)F)[C@H]1CCNC1 [Example 6-51, (S)-3-[(S)-1-(4-Chloro-2-trifluoromethylphenoxy)-2-methylpropyl]pyrrolidine] | ≤ 100 | ≤ 10 | ≤ 10 | ≤ 10 | 
6 | CC(C)C[C@H](Oc1cccc(Cl)c1Cl)[C@H]1CCNC1 [Example 9, (S)-3-[(S)-1-(2,3-Dichlorophenoxy)-3-methylbutyl]pyrrolidine] | ≤ 10 | ≤ 10 | ≤ 10 | ≤ 10 | 
7 | CC(C)C[C@H](Oc1cccc(Cl)c1Cl)[C@@H]1CCNC1 [Example 10-24, (R)-3-[(S)-1-(2,3-Dichlorophenoxy)-3-methylbutyl]pyrrolidine] | ≤ 10 | ≤ 10 | ≤ 10 | ≤ 10 | 
8 | CC(C)C[C@H](Oc1cccc(F)c1Cl)[C@@H]1CCNC1 [Example 10-28, (R)-3-[(S)-1-(2-Chloro-3-fluorophenoxy)-3-methylbutyl]pyrrolidine] | ≤ 10 | ≤ 10 | ≤ 10 | ≤ 10 | 
9 | Cc1c(Cl)cccc1O[C@@H](CC(C)C)[C@@H]1CCNC1 [Example 10-32, (R)-3-[(S)-1-(3-Chloro-2-methylphenoxy)-3-methylbutyl]pyrrolidine] | ≤ 10 | ≤ 10 | ≤ 10 | ≤ 10 | 
10 | Cc1c(Cl)cccc1O[C@@H](CC(C)C)[C@H]1CCNC1 [Example 10-33, (S)-3-[(S)-1-(3-Chloro-2-methylphenoxy)-3-methylbutyl]pyrrolidine] | ≤ 10 | ≤ 10 | ≤ 10 | ≤ 10 | 
11 | CC(C)C[C@@H](Oc1c(Cl)cccc1Cl)[C@H]1CCNC1 [Example 10-55, (S)-3-[(R)-1-(2,6-Dichlorophenoxy)-3-methylbutyl]pyrrolidine] | ≤ 100 | ≤ 10 | ≤ 10 | ≤ 10 | 
12 | CC(C)C[C@H](Oc1c(Cl)cccc1Cl)[C@@H]1CCNC1 [Example 10-56, (R)-3-[(S)-1-(2,6-Dichlorophenoxy)-3-methylbutyl]pyrrolidine] | ≤ 100 | ≤ 100 | ≤ 10 | ≤ 10 | 
13 | CC(C)C[C@H](Oc1cc(Cl)cc(Cl)c1)[C@@H]1CCNC1 [Example 10-80, (R)-3-[(S)-1-(3,5-Dichlorophenoxy)-3-methylbutyl]pyrrolidine] | ≤ 10 | ≤ 10 | ≤ 10 | ≤ 10 | 
14 | Clc1ccccc1O[C@@H](C1CC1)[C@H]1CCNC1 [Example 16-1, (S)-3-[(S)-(2-Chlorophenoxy)cyclopropylmethyl]pyrrolidine] | ≤ 100 | ≤ 10 | ≤ 10 | ≤ 10 | 
15 | Clc1ccccc1O[C@H](C1CC1)[C@H]1CCNC1 [Example 16-2, (S)-3-[(R)-(2-Chlorophenoxy)cyclopropylmethyl]pyrrolidine] | ≤ 100 | ≤ 10 | ≤ 10 | ≤ 10 | 
16 | Fc1c(Cl)cccc1O[C@@H](C1CC1)[C@H]1CCNC1 [Example 16-11, (S)-3-[(S)-(3-Chloro-2-fluorophenoxy)cyclopropylmethyl]pyrrolidine] | ≤ 10 | ≤ 10 | ≤ 10 | ≤ 10 | 
17 | Cc1cccc(O[C@@H](C2CC2)[C@H]2CCNC2)c1C [Example 16-12, (S)-3-[(S)cyclopropyl-(2,3-dimethylphenoxy)-methyl]pyrrolidine] | ≤ 10 | ≤ 10 | ≤ 10 | ≤ 10 | 
18 | CCOc1cc(Cl)ccc1O[C@@H](C1CC1)[C@H]1CCNC1 [Example 16-41, (S)-3-[(S)-(4-Chloro-2-ethoxyphenoxy)cyclopropylmethyl]pyrrolidine] | ≤ 100 | ≤ 10 | ≤ 10 | ≤ 10 | 

Row | SMILES | IC50 [1] [nM] | IC50 [2] [nM] | Ki [3] [nM] | Ki [4] [nM] | NET pIC50 [2]
19 | CCOc1cc(Cl)ccc1O[C@H](C1CC1)[C@H]1CCNC1 [Example 16-42, (S)-3-[(R)-(4-Chloro-2-ethoxyphenoxy)cyclopropylmethyl]pyrrolidine] | ≤ 100 | ≤ 100 | ≤ 100 | ≤ 10 | 
20 | Fc1ccc(O[C@@H](C2CC2)[C@H]2CCNC2)c(F)c1F [Example 16-46, (S)-3-[(S)cyclopropyl-(2,3,4-trifluorophenoxy)methyl]pyrrolidine] | ≤ 10 | ≤ 10 | ≤ 10 | ≤ 10 | 
21 | Fc1ccc(O[C@H](C2CC2)[C@H]2CCNC2)c(F)c1F [Example 16-47, (S)-3-[(R)cyclopropyl-(2,3,4-trifluorophenoxy)methyl]pyrrolidine] | ≤ 10 | ≤ 10 | ≤ 100 | ≤ 10 | 
22 | Cc1ccc(O[C@@H](C2CC2)[C@H]2CCNC2)c(F)c1F [Example 16-50, (S)-3-[(S)cyclopropyl-(2,3-difluoro-4-methylphenoxy)methyl]pyrrolidine] | ≤ 10 | ≤ 10 | ≤ 10 | ≤ 10 | 
23 | Fc1c(Cl)ccc(O[C@@H](C2CC2)[C@H]2CCNC2)c1Cl [Example 16-52, (S)-3-[(S)cyclopropyl-(2,4-dichloro-3-fluorophenoxy)methyl]pyrrolidine] | ≤ 10 | ≤ 10 | ≤ 10 | ≤ 10 | 
24 | Fc1ccc(O[C@@H](C2CC2)[C@H]2CCNC2)c(F)c1Cl [Example 16-53, (S)-3-[(S)-(3-Chloro-2,4-difluorophenoxy)cyclopropylmethyl]pyrrolidine] | ≤ 10 | ≤ 10 | ≤ 10 | ≤ 10 | 
25 | COc1c(F)ccc(O[C@@H](C2CC2)[C@H]2CCNC2)c1F [Example 16-54, (S)-3-[(S)cyclopropyl-(2,4-difluoro-3-methoxyphenoxy)methyl]pyrrolidine] | ≤ 10 | ≤ 10 | ≤ 10 | ≤ 10 | 
26 | COc1c(O[C@H](C2CC2)[C@H]2CCNC2)ccc(Cl)c1Cl [Example 16-56, (S)-3-[(R)cyclopropyl-(3,4-dichloro-2-methoxyphenoxy)methyl]pyrrolidine] | ≤ 10 | ≤ 316 | ≤ 316 | ≤ 10 | 
27 | Fc1ccc(Cl)c(Cl)c1O[C@@H](C1CC1)[C@H]1CCNC1 [Example 16-59, (S)-3-[(S)cyclopropyl-(2,3-dichloro-6-fluorophenoxy)methyl]pyrrolidine] | ≤ 10 | ≤ 10 | ≤ 10 | ≤ 10 | 
28 | Fc1ccc(Cl)c(Cl)c1O[C@H](C1CC1)[C@H]1CCNC1 [Example 16-60, (S)-3-[(R)cyclopropyl-(2,3-dichloro-6-fluorophenoxy)methyl]pyrrolidine] | ≤ 10 | ≤ 10 | ≤ 10 | ≤ 10 | 
29 | Cc1ccc(F)c(O[C@@H](C2CC2)[C@H]2CCNC2)c1Cl [Example 16-62, (S)-3-[(S)-(2-Chloro-6-fluoro-3-methylphenoxy)cyclopropylmethyl]pyrrolidine] | ≤ 100 | ≤ 10 | ≤ 10 | ≤ 10 | 
30 | Cc1ccc(F)c(O[C@H](C2CC2)[C@H]2CCNC2)c1Cl [Example 16-63, (S)-3-[(R)-(2-Chloro-6-fluoro-3-methylphenoxy)cyclopropylmethyl]pyrrolidine] | ≤ 100 | ≤ 10 | ≤ 10 | ≤ 10 | 
31 | Clc1cccc(Cl)c1OC(C1CCCC1)C1CCNC1 (stereo not shown) [Example 18-8, 3-[Cyclopentyl-(2,6-dichlorophenoxy)methyl]pyrrolidine] | ≤ 100 | ≤ 10 |  |  | 
32 | Clc1cc(Cl)cc(OC(C2CCCC2)C2CCNC2)c1 (stereo not shown) [Example 18-9, 3-[Cyclopentyl-(3,5-dichlorophenoxy)methyl]pyrrolidine] | ≤ 10 | ≤ 10 |  |  | 
33 | Clc1cc(Cl)cc(OC(C2CCCC2)C2CCNC2)c1 (stereo not shown) [Example 18-10, 3-[Cyclopentyl-(3,5-dichlorophenoxy)methyl]pyrrolidine] | ≤ 100 |  |  |  | ≧8.0*
34 | Clc1ccc(OC(C2CCCC2)C2CCNC2)cc1 (stereo not shown) [Example 18-11, 3-[(4-Chlorophenoxy)cyclopentylmethyl]pyrrolidine] | ≤ 10 | ≤ 100 |  |  | 
35 | Fc1ccc(OC(C2CCCC2)C2CCNC2)cc1 (stereo not shown) [Example 18-12, 3-[Cyclopentyl-(4-fluorophenoxy)methyl]pyrrolidine] | ≤ 100 | ≤ 100 |  |  | 
